“And” between values parts separate entries of the source, which are not always exact repeats. Equal values may be shown once. Each block holds one compound with its values, some of them ahead of it.
What was measured:
CYP2C9 = CYP2C9 (Homo sapiens, UniProt P11712); experiment: Kinetic properties of fluorogenic substrates with CYP 2C9; assay type: biochemical; conditions: for v (1.25 uM): turnover rate at 1.25 uM substrate; for v (1.25 uM) / v (10 uM) / Km / kcat: — = too low to quantify; for v (10 uM): turnover rate at 10 uM substrate
CYP 2B6 = target: T1, CYP 2B6 (Homo sapiens, UniProt P20813); experiment: Kinetic properties of fluorogenic substrates with CYP 2B6; assay type: biochemical; conditions: for v (1.25 uM): turnover rate at 1.25 uM substrate; for v (1.25 uM) / v (10 uM) / Km / kcat: — = too low to quantify; for v (10 uM): turnover rate at 10 uM substrate
T1 sequence (P20813 1-491): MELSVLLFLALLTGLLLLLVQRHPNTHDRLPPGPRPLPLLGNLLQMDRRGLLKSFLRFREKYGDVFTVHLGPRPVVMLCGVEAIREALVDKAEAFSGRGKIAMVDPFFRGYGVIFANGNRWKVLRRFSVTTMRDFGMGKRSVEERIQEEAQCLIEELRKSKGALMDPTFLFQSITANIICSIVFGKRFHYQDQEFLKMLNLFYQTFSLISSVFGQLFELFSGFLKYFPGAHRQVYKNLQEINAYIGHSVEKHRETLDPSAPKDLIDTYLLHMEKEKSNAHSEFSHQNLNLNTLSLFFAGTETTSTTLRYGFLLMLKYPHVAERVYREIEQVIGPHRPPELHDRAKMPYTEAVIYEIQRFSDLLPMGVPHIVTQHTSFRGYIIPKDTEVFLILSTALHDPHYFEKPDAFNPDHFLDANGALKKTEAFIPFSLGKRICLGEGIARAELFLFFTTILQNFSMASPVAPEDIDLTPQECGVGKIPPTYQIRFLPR

CYP2D6 = CYP2D6 (Homo sapiens, UniProt P10635); experiment: Kinetic properties of fluorogenic substrates with CYP 2D6; assay type: biochemical; conditions: for v (1.25 uM): turnover rate at 1.25 uM substrate; for v (10 uM): turnover rate at 10 uM substrate
From the text: (§1) (respectively, MFC and MR).

CYP2C19 = CYP2C19 (Homo sapiens, UniProt P33261); experiment: Kinetic properties of fluorogenic substrates with CYP 2C19; assay type: biochemical; conditions: for v (1.25 uM): turnover rate at 1.25 uM substrate; for v (1.25 uM) / v (10 uM): — = too low to quantify; for v (10 uM): turnover rate at 10 uM substrate
CYP 1A2 = target: T2, CYP 1A2 (Homo sapiens, UniProt P05177); experiment: Kinetic properties of fluorogenic substrates with CYP 1A2; assay type: biochemical
T2 sequence (P05177 1-516): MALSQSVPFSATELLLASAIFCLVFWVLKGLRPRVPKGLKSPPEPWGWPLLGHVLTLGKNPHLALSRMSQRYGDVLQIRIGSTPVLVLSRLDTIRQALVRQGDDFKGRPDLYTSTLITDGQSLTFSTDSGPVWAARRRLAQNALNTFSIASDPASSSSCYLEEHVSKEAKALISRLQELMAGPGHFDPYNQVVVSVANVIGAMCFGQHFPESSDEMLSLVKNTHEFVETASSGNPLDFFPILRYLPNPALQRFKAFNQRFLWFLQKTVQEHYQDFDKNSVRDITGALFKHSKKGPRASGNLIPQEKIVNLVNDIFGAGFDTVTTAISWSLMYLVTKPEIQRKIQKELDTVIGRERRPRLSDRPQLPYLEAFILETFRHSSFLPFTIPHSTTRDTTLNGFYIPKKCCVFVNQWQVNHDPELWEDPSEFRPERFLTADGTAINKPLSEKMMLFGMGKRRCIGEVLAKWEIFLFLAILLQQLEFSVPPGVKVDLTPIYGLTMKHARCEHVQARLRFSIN

CYP3A4 [1] = target: T3, CYP3A4 (Homo sapiens, UniProt P08684); experiment: Kinetic properties of fluorogenic substrates with CYP 3A4; assay type: biochemical; conditions: for v (1.25 uM): turnover rate at 1.25 uM substrate; for v (1.25 uM) / v (10 uM): — = too low to quantify; for v (10 uM): turnover rate at 10 uM substrate
From the text: For further understanding these terms in the context of this invention, attention is directed to FIG. 4 and the analysis of FIG. 4.
as §1

CYP3A4 [2] = target: T3, CYP3A4; experiment: in vitro; conditions: pH 8, % inhibition; for inhibition at 20 min, 10 µM: Condition A; for inhibition at 40 min, 10 µM: Condition B

T3 sequence (P08684 whole entry): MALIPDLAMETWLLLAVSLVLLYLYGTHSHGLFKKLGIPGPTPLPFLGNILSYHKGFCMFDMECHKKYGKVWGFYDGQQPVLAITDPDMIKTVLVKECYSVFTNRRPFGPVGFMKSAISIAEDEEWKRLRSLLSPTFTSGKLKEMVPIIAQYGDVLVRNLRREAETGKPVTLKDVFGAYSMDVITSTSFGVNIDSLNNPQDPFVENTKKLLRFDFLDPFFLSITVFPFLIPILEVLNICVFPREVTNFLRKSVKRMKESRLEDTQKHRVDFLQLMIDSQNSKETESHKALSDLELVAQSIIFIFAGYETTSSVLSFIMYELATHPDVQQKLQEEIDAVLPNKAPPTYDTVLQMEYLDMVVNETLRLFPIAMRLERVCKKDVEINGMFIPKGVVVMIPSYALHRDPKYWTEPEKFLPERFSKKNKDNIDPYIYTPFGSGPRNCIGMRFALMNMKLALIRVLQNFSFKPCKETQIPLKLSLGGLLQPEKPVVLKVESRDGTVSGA
Sequence of CYP2C19 (P33261 whole entry): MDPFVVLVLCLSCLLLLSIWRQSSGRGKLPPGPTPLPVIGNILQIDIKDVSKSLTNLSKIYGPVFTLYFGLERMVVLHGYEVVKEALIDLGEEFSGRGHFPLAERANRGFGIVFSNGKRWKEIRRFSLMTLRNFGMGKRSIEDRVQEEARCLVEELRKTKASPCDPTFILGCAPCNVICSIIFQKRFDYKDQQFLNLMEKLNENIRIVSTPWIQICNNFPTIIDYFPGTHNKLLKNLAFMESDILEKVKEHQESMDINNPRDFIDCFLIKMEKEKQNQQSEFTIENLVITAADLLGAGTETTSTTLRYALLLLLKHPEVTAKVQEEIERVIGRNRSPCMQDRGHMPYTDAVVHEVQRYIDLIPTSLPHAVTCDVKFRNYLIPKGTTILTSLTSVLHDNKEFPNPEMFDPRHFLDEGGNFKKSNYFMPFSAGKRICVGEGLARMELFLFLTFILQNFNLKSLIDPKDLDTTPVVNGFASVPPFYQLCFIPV
Sequence of CYP2D6 (P10635 whole entry): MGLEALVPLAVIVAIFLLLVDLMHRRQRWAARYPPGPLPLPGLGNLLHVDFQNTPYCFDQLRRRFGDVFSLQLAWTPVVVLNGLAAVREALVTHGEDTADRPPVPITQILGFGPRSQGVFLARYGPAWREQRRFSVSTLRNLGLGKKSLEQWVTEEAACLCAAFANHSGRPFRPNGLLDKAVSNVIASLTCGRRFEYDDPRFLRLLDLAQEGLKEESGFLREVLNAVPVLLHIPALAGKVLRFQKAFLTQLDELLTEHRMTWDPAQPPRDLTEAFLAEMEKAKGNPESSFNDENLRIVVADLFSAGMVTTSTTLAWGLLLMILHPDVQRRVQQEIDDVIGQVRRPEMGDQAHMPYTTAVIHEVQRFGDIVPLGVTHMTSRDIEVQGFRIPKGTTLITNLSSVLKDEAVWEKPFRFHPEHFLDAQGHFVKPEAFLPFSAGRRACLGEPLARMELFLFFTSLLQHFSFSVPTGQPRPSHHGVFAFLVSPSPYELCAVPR
Sequence of CYP2C9 (P11712 whole entry): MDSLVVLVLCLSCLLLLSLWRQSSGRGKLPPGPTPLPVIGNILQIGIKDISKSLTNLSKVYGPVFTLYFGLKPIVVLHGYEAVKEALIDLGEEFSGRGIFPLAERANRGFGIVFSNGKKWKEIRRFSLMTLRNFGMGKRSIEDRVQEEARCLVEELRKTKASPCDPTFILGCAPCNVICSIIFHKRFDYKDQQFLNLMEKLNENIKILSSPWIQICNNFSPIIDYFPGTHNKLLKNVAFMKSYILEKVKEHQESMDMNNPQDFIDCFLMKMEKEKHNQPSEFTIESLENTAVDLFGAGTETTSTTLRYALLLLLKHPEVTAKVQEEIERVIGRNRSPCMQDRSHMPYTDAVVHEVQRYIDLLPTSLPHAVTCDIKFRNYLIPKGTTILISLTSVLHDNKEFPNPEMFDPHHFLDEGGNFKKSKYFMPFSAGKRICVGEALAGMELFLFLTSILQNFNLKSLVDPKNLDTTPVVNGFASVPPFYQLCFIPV

Compound: CCOc1ccc2cc(C#N)c(=O)oc2c1 [3CEC, 3-Cyano-7-ethoxycoumarin, reference compound]
type of kinetics (CYP2C19): Michaelis-Menten
v (1.25 uM) (CYP2C19): 0.05 min⁻¹
v (10 uM) (CYP2C19): 0.34 min⁻¹
type of kinetics (CYP 1A2): Michaelis-Menten
v (1.25 uM) (CYP 1A2; turnover rate at 1.25 uM substrate): 1.73 min⁻¹
v (10 uM) (CYP 1A2; turnover rate at 10 uM substrate): 12.55 min⁻¹

Compound: COc1ccc2cc(C#N)c(=O)oc2c1 [3CMC, 3-cyano-7-methoxycoumarin, reference compound]
type of kinetics (CYP2C19): linear
v (1.25 uM) (CYP2C19): 0.01 min⁻¹
v (10 uM) (CYP2C19): 0.07 min⁻¹
type of kinetics (CYP2C9): linear
v (1.25 uM) (CYP2C9): 0.00 min⁻¹
v (10 uM) (CYP2C9): 0.04 min⁻¹

Compound: N#Cc1cc2ccc(OCc3ccccc3)cc2oc1=O [BCC, 7-Benzyloxy-3-cyanocoumarin, reference compound]
type of kinetics (CYP2C19): Michaelis-Menten
v (1.25 uM) (CYP2C19): 0.02 min⁻¹
v (10 uM) (CYP2C19): 0.06 min⁻¹
v (1.25 uM) (CYP2C9): 0.00 min⁻¹
v (10 uM) (CYP2C9): 0.00 min⁻¹
type of kinetics (CYP 2B6): Michaelis-Menten
Km (CYP 2B6; human, CYP 2B6 isozyme): 1.3 µM
v (1.25 uM) (CYP 2B6): 0.04 min⁻¹
v (10 uM) (CYP 2B6): 0.07 min⁻¹
kcat (CYP 2B6): 0.0017 s⁻¹

Compound: O=c1cc(C(F)(F)F)c2ccc(OCc3ccccc3)cc2o1 [BFC, 7-Benzyloxy-4-trifluoromethylcoumarin, reference compound]
type of kinetics (CYP3A4 [1]): linear
v (1.25 uM) (CYP3A4 [1]): 0.04 min⁻¹
v (10 uM) (CYP3A4 [1]): 0.81 min⁻¹

Compound: CC1(C)C2=C(Cl)C(=O)C(Cl)=CC2=Nc2ccc(OCOCc3ccccc3)cc21 [BOM-DDAO]
v (1.25 uM) (CYP3A4 [1]): 0.4402 min⁻¹
v (10 uM) (CYP3A4 [1]): 4.2041 min⁻¹

Compound: O=C(OCc1ccccc1)c1c2oc3cc(OCc4ccccc4)ccc3nc-2ccc1=O [BRCBE]
v (1.25 uM) (CYP3A4 [1]): 0.1992 min⁻¹
v (10 uM) (CYP3A4 [1]): 0.6241 min⁻¹

Compound: CCN(CC)Cc1cc(=O)oc2cc(OC)ccc12 [DMMC]
v (1.25 uM) (CYP2C19): 0.03 min⁻¹
v (10 uM) (CYP2C19): 0.23 min⁻¹

Compound: O=C1NC(=O)C(c2ccccc2)(c2ccccc2)N1 [Diphenylhydantoin]
inhibition at 20 min, 10 µM (CYP3A4 [2]; substrate BOMCC): -11%
inhibition at 40 min, 10 µM (CYP3A4 [2]; substrate BOMCC): 21%
inhibition at 20 min, 10 µM (CYP3A4 [2]; substrate BOMR): -27%
inhibition at 40 min, 10 µM (CYP3A4 [2]; substrate BOMR): 24%
inhibition at 20 min, 10 µM (CYP3A4 [2]; substrate DBOMF): 21%
inhibition at 40 min, 10 µM (CYP3A4 [2]; substrate DBOMF): 5%

The remaining lines, values ahead:

type of kinetics (CYP2C9): Michaelis-Menten
v (1.25 uM) (CYP2C9): 0.01 min⁻¹
v (10 uM) (CYP2C9): 0.03 min⁻¹
Km (CYP2C9): 103 µM
kcat (CYP2C9): 0.0067 s⁻¹
type of kinetics (CYP 2B6): Michaelis-Menten
v (1.25 uM) (CYP 2B6): 1.63 min⁻¹
v (10 uM) (CYP 2B6): 2.53 min⁻¹
Km (CYP 2B6): 1.4 µM
kcat (CYP 2B6): 0.0483 s⁻¹
type of kinetics (CYP2D6): Michaelis-Menten
v (1.25 uM) (CYP2D6; — = too low to quantify): 0.03 min⁻¹
v (10 uM) (CYP2D6; — = too low to quantify): 0.10 min⁻¹
Km (CYP2D6; — = too low to quantify): 10 µM
kcat (CYP2D6; — = too low to quantify): 0.005 s⁻¹
Compound: 7-Methoxy-4-trifluoromethylcoumarin [MFC, reference compound]

type of kinetics (CYP3A4 [1]): Michaelis-Menten
v (1.25 uM) (CYP3A4 [1]): 0.03 min⁻¹
v (10 uM) (CYP3A4 [1]): 0.10 min⁻¹
Compound: CCOCOc1ccc2nc3ccc(=O)cc-3oc2c1 [EOMR]

v (1.25 uM) (CYP2C19): 0.027 min⁻¹
v (10 uM) (CYP2C19): 0.232 min⁻¹
v (1.25 uM) (CYP2D6; — = too low to quantify): 0.0076 min⁻¹
v (10 uM) (CYP2D6; — = too low to quantify): 0.0378 min⁻¹
Compound: CC(C)Oc1ccc2cc(C#N)c(=O)oc2c1 [IPCC]

inhibition at 20 min, 10 µM (CYP3A4 [2]; substrate BOMCC): 59%
inhibition at 40 min, 10 µM (CYP3A4 [2]; substrate BOMCC): 48%
inhibition at 20 min, 10 µM (CYP3A4 [2]; substrate BOMR): -8%
inhibition at 40 min, 10 µM (CYP3A4 [2]; substrate BOMR): 30%
inhibition at 20 min, 10 µM (CYP3A4 [2]; substrate DBOMF): -9%
inhibition at 40 min, 10 µM (CYP3A4 [2]; substrate DBOMF): 3%
Compound: NNC(=O)c1ccncc1 [Isoniazid]

type of kinetics (CYP2C19): not MMK
v (1.25 uM) (CYP2C19): 1.26 min⁻¹
v (10 uM) (CYP2C19): 0.69 min⁻¹
type of kinetics (CYP2C9): Michaelis-Menten
v (1.25 uM) (CYP2C9): 0.02 min⁻¹
v (10 uM) (CYP2C9): 0.02 min⁻¹
type of kinetics (CYP 2B6): Michaelis-Menten
Km (CYP 2B6; human, CYP 2B6 isozyme): 0.01 µM
v (1.25 uM) (CYP 2B6): 0.08 min⁻¹
v (10 uM) (CYP 2B6): 0.10 min⁻¹
kcat (CYP 2B6): 0.0067 s⁻¹
type of kinetics (CYP2D6): Michaelis-Menten
v (1.25 uM) (CYP2D6; — = too low to quantify): 0.0185 min⁻¹ and 0.02 min⁻¹
v (10 uM) (CYP2D6; — = too low to quantify): 0.0409 min⁻¹ and 0.04 min⁻¹
Compound: COc1ccc(COc2ccc3nc4ccc(=O)cc-4oc3c2)cc1 [MOBR, Paramethoxybenzylresorufin]

type of kinetics (CYP2C19): Michaelis-Menten
v (1.25 uM) (CYP2C19): 0.14 min⁻¹
v (10 uM) (CYP2C19): 0.38 min⁻¹
type of kinetics (CYP2C9): Michaelis-Menten
v (1.25 uM) (CYP2C9): 0.01 min⁻¹
v (10 uM) (CYP2C9): 0.07 min⁻¹
Compound: COCOc1ccc2cc(C#N)c(=O)oc2c1 [MOMCC]

type of kinetics (CYP2C9): Michaelis-Menten
v (1.25 uM) (CYP2C9): 0.00 min⁻¹
v (10 uM) (CYP2C9): 0.07 min⁻¹
Km (CYP2C9): 14.9 µM
kcat (CYP2C9): 0.0017 s⁻¹
type of kinetics (CYP 2B6): notMichaelis-Menten
v (1.25 uM) (CYP 2B6): 0.54 min⁻¹
v (10 uM) (CYP 2B6): 0.71 min⁻¹
Compound: COCOc1ccc2c(C(F)(F)F)cc(=O)oc2c1 [MOMFC, 7-Methyloxymethyloxy-4-trifluorocoumarin]

v (1.25 uM) (CYP3A4 [1]): 0.0083 min⁻¹
v (10 uM) (CYP3A4 [1]): 0.0338 min⁻¹
v (1.25 uM) (CYP2C19): 0.06 min⁻¹
v (10 uM) (CYP2C19): 0.062 min⁻¹
v (1.25 uM) (CYP2D6; — = too low to quantify): 0.03396 min⁻¹
v (10 uM) (CYP2D6; — = too low to quantify): 0.2146 min⁻¹
Compound: COCOc1ccc2nc3ccc(=O)cc-3oc2c1 [MOMR]

inhibition at 20 min, 10 µM (CYP3A4 [2]; substrate BOMCC): 44%
inhibition at 40 min, 10 µM (CYP3A4 [2]; substrate BOMCC): 33%
inhibition at 20 min, 10 µM (CYP3A4 [2]; substrate BOMR): -19%
inhibition at 40 min, 10 µM (CYP3A4 [2]; substrate BOMR): 27%
inhibition at 20 min, 10 µM (CYP3A4 [2]; substrate DBOMF): -9%
inhibition at 40 min, 10 µM (CYP3A4 [2]; substrate DBOMF): -3%
Compound: O=C1CN(/N=C/c2ccc([N+](=O)[O-])o2)C(=O)N1 [Nitrofurantoin]

v (1.25 uM) (CYP3A4 [1]): 0.2274 min⁻¹
v (10 uM) (CYP3A4 [1]): 0.961 min⁻¹
v (1.25 uM) (CYP2C19): 0.179 min⁻¹
v (10 uM) (CYP2C19): 1.043 min⁻¹
Compound: CCCCCCCCOCOc1ccc2cc(C#N)c(=O)oc2c1 [OOMCC]

inhibition at 20 min, 10 µM (CYP3A4 [2]; substrate BOMCC): 7%
inhibition at 40 min, 10 µM (CYP3A4 [2]; substrate BOMCC): 21%
inhibition at 20 min, 10 µM (CYP3A4 [2]; substrate BOMR): -5%
inhibition at 40 min, 10 µM (CYP3A4 [2]; substrate BOMR): 13%
inhibition at 20 min, 10 µM (CYP3A4 [2]; substrate DBOMF): 1%
inhibition at 40 min, 10 µM (CYP3A4 [2]; substrate DBOMF): 3%
Compound: C=CCOc1ccccc1OCC(O)CNC(C)C (stereo not shown) [Oxprenolol]

— US7132252B2, “Methods for detecting the interaction of compounds with cytochrome P450 using optical molecular sensors” (Invitrogen Corporation, priority 1998, dated 2006)
